In assay [1] the target is Bifunctional protein GlmU (Escherichia coli (strain K12)) (UniProt P0ACC7). Briefly: Competitive inhibition of Acetyltransferase activity of Escherichia coli BL21(DE3) GlmU in presence of AcCoA.
Assay [2] has the same target. Briefly: Uncompetitive inhibition of Acetyltransferase activity of Escherichia coli BL21(DE3) GlmU in presence of GlcN-1P.
The target is the same in assay [3]. Description: Uncompetitive inhibition of Acetyltransferase activity of Escherichia coli BL21(DE3) GlmU in presence of AcCoA.

Bifunctional protein GlmU (Escherichia coli (strain K12)), sequence (P0ACC7 whole entry, looked up): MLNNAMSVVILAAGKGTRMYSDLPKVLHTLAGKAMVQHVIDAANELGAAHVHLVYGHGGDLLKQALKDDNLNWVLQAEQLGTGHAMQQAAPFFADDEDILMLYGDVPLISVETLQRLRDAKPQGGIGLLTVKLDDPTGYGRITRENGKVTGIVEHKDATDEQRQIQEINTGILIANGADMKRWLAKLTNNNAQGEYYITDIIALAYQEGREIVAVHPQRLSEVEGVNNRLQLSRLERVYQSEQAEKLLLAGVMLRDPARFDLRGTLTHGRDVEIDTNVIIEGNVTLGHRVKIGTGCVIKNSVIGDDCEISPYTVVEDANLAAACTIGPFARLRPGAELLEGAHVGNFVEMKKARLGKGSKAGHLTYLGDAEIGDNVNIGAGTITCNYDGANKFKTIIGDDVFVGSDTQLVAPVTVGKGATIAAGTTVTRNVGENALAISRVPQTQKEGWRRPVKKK

Consider `O=S(=O)(Nc1ccc(S(=O)(=O)c2ccc(-c3ccc(S(=O)(=O)c4ccc(NS(=O)(=O)c5ccc(Cl)cc5)c(Cl)c4)cc3)cc2)cc1Cl)c1ccc(Cl)cc1`, for which, in assay [1], the Kic came out at 404 nM. In addition, in assay [2], the Kiuc was determined as 1.11 ×10³ nM.

Turning to `O=C(CSc1nnc(SCC(=O)NCCSCc2ccco2)s1)NCCSCc1ccco1`, in assay [1], the Kic is 22.8 nM. Moreover, the Kiuc in assay [3] was determined as 101 nM.

On to `Nc1ccc(Nc2ccc(N)cc2S(=O)(=O)O)cc1`, for which the Kic in assay [1] was 17.2 nM. The Kiuc in assay [2] is 189 nM.

Values taken from ChEMBL document CHEMBL1649466, “High-throughput screening identifies novel inhibitors of the acetyltransferase activity of Escherichia coli GlmU” (Antimicrob Agents Chemother, 2009).
